Turning to `Cn1nc2n(c1=O)-c1ccc(Cl)cc1C(c1ccccc1F)=CC2`, the melting point (usually the temperature of the solid-liquid transition) was 142 to 143 °C.
With `COC(=O)c1ccc(Cc2cc3cc(Cl)ccc3n2S(=O)(=O)N2CCCCC2)cc1` the figure was 133 °C.
Molecule `Cc1nc(-c2ccc(C=CC3(O)CN4CCC3CC4)cc2)no1` (stereo not given) had a melting point of 188 to 189 °C.
In turn, `CC(C)(C)c1cc(C=O)cc(I)c1O` yielded a melting point of 124 °C.
With `CSc1ccc2c(c1)C(O)Cc1ccc(C)cc1O2` (stereo not given) the figure was 67 to 69 °C.
In turn, `CC(C)Oc1ccc(NC(=O)OCc2cc3cc(-c4ccc(F)cc4)ccc3o2)c(C(=O)O)c1` displayed a melting point of 195 to 196 °C.
For `CCc1cc([N+](=O)[O-])c(NC(CC)CC)c([N+](=O)[O-])c1COC` the value was 28 to 29 °C; for `O=C(CO)NCCCCCCCCCCNC(=O)CO`, 120 to 122 °C.
With `O=c1cc(-c2ccccc2)oc2ccc(OCCCCCN3CCC(O)CC3)cc12` the figure was 128 to 129 °C; with `Clc1ccc(Nc2nc3ccccc3c3[nH]c(C4CCCCCC4)nc23)cc1Cl`, 236 to 238 °C; with `CCOC(=O)C(C)(C)Oc1ccc(C=CC(=O)c2ccccc2)cc1`, 68 to 70 °C.
With `CCOC(=O)Cc1c(C(=O)O)c(C)c(C(=O)c2ccc(C)cc2)n1C` the figure was 200 to 202 °C; with `CC(COc1ccc(-n2cncn2)cc1)(NS(=O)(=O)Cc1ccccc1)C(=O)O` (stereo not given), 148 to 151 °C.
`Oc1ccc([C@H]2CC[C@H](NCCNc3ccccc3)CC2)cc1` displayed a melting point of 180 to 184 °C.
For `CC(C)(C)NC(=O)[C@@H]1C[C@@H]2CCCC[C@@H]2CN1C[C@@H](O)[C@H](Cc1ccccc1)NC(=O)[C@@H](Nc1nc(CO)cs1)C(C)(C)S(C)(=O)=O` the value was 126 °C; for `Cc1ccsc1C(Cc1ccccc1N)N(C)C(=O)C(C)C` (stereo not given), 137 to 141 °C.
With `O=c1oc2cc(O)c(F)cc2s1` the figure was 141 to 143 °C; with `COc1ccc(-c2nn(CC=Cc3ccc(Cl)cc3)c(=O)cc2-c2ccc(OC)c(F)c2)cc1`, 109 to 111 °C; with `COc1ccc(C2(O)c3ccccc3-c3ccccc32)cc1`, 91 to 93 °C.
For `COc1ccc(Cl)c2c1CCC(CCl)=C2` the value was 68 to 69.5 °C.
In turn, `C[C@@H](n1cnc2ccc(Br)cc2c1=O)[C@](O)(Cn1cncn1)c1ccc(F)cc1F` gave a melting point of 182 to 183 °C.
With `COc1cccc(C(=O)P2(=O)Oc3ccccc3-c3ccccc32)c1` (stereo not given) the figure was 116 to 118 °C.
For `O[C@@H]1C=C[C@H](n2cnc3c(Cl)ncnc32)C1` (racemic) the value was 118 °C; for `CCn1cc(-c2coc3ccc(-c4nnc(C)o4)cc23)cn1`, 122 to 123 °C.
In turn, `CC(C)(O)c1ccc(-c2ccc3nnn(Cc4ccc5ncccc5c4)c3n2)cc1F` gave a melting point of 85 to 89 °C.
In turn, `Cc1nccn1CCC(=O)c1nn2c3c(cccc13)CCC2` registered a melting point of 133 to 134 °C.
Regarding `COc1ccc(C(=O)O)c(C)c1OC`, the melting point fell in the range of 179 to 180 °C.
`CNC(=S)C1(c2ccccc2)CCCCC1=O` (stereo not given) showed a melting point of 86 °C.
For `CC(C)(C)c1cc(C=C(C#N)c2ccccn2)cc(C(C)(C)C)c1` the value was 90 to 93 °C; for `CCN(CC)C(=O)CCc1nc(-c2ccccc2)nc2ccc(Br)cc12`, 146 °C.
With `Cc1ccc(S(=O)(=O)N(CCCl)N(S(C)(=O)=O)S(C)(=O)=O)cc1` the figure was 99 to 101 °C.
For `O=C(Nc1ccc(-n2nc(C(F)(F)F)cc2C(F)(F)F)cc1)c1cccnc1` the value was 185 to 188 °C; for `C1CCCCCC(=NOC(=NC2CCCCC2)NC2CCCCC2)CCCCC1`, 108 to 111 °C.
The molecule `CCCCOc1c(CNC(=O)OC(C)(C)C)n(CC(C)C)c(=O)c2ccc(C(=O)N(C)OC)cc12` returned a melting point of 142 to 143 °C.
With `CCCOc1ccccc1-c1nc2nc(NC)nnc2c(=O)[nH]1` the figure was 261 to 263 °C.

The values are drawn from a melting point compilation (Tetko et al.; mined from patent text by program, amines drawn as free bases though some values may be those of a salt).
